Measurements published in ChEMBL document CHEMBL3885881, “DrugMatrix”.

Species on record: Rattus norvegicus
Test: DrugMatrix - Regimen: Daily Repeat
Assay type: toxicity, organism-based, Sprague-Dawley
Design: regimen Daily Repeat, gender Male, age 6-8 weeks
Details: in vivo, po, route oral GAVAGE, vehicle .5 % CMC; for BASOPHIL / EOSINOPHIL / ERYTHROCYTE COUNT / HEMATOCRIT / HEMOGLOBIN / LEUKOCYTE COUNT / LYMPHOCYTE / MEAN CORPUSCULAR HEMOGLOBIN / MEAN CORPUSCULAR HEMOGLOBIN CONCENTRATION / MEAN CORPUSCULAR VOLUME / MONOCYTE / NEUTROPHIL / PLATELET COUNT: tissue Blood; for ALANINE AMINOTRANSFERASE / ALBUMIN / ALKALINE PHOSPHATASE / ASPARTATE AMINOTRANSFERASE / BLOOD UREA NITROGEN / CHLORIDE / CHOLESTEROL / CREATINE PHOSPHOKINASE / CREATININE / GLUCOSE / PHOSPHORUS / SODIUM / TOTAL PROTEIN: tissue Plasma
[1] = 0 mg/kg, 72 h, dose level Control, time 3 day
[2] = 0 mg/kg, 120 h, dose level Control, time 5 day
[3] = 10 mg/kg, 72 h, dose level Low, time 3 day
[4] = 10 mg/kg, 120 h, dose level Low, time 5 day
[5] = 2000 mg/kg, 72 h, dose level High, time 3 day
[6] = 2000 mg/kg, 120 h, dose level High, time 5 day

**Q.** What does the source list for `CCn1cc(C(=O)O)c(=O)c2cc(F)c(N3CCNC(C)C3)c(F)c21` (stereo unspecified) [LOMEFLOXACIN]?
**A.** BASOPHIL [1]: 0%; EOSINOPHIL [1]: 0.4%; ERYTHROCYTE COUNT [1]: 6.43 x10E6/uL; HEMATOCRIT [1]: 37.36%; HEMOGLOBIN [1]: 13.98 G/DL; LEUKOCYTE COUNT [1]: 13 x10E3/uL; LYMPHOCYTE [1]: 81.4%; MEAN CORPUSCULAR HEMOGLOBIN [1]: 21.9 pg; MEAN CORPUSCULAR HEMOGLOBIN CONCENTRATION [1]: 37.4 G/DL; MEAN CORPUSCULAR VOLUME [1]: 58.52 fL; MONOCYTE [1]: 0.4%; NEUTROPHIL [1]: 18%; PLATELET COUNT [1]: 1386 x10E3/uL; ALANINE AMINOTRANSFERASE [1]: 39.33 u/L; ALBUMIN [1]: 3.57 G/DL; ALKALINE PHOSPHATASE [1]: 283.83 u/L; ASPARTATE AMINOTRANSFERASE [1]: 69.5 u/L; BLOOD UREA NITROGEN [1]: 14.83 mg/dL; CHLORIDE [1]: 107.33 MEQ/L; CHOLESTEROL [1]: 75.17 mg/dL; CREATINE PHOSPHOKINASE [1]: 107.67 u/L; CREATININE [1]: 0.48 mg/dL; GLUCOSE [1]: 172.5 mg/dL; PHOSPHORUS [1]: 10.48 mg/dL; SODIUM [1]: 152.33 MEQ/L; TOTAL PROTEIN [1]: 5.9 G/DL; BASOPHIL [2]: 0%; EOSINOPHIL [2]: 0.4%; ERYTHROCYTE COUNT [2]: 6.96 x10E6/uL; HEMATOCRIT [2]: 41.12%; HEMOGLOBIN [2]: 15.24 G/DL; LEUKOCYTE COUNT [2]: 11.06 x10E3/uL; LYMPHOCYTE [2]: 88.6%; MEAN CORPUSCULAR HEMOGLOBIN [2]: 21.96 pg; MEAN CORPUSCULAR HEMOGLOBIN CONCENTRATION [2]: 37.1 G/DL; MEAN CORPUSCULAR VOLUME [2]: 59.12 fL; MONOCYTE [2]: 0.2%; NEUTROPHIL [2]: 10.8%; PLATELET COUNT [2]: 1155.8 x10E3/uL; ALANINE AMINOTRANSFERASE [2]: 36.33 u/L; ALBUMIN [2]: 3.72 G/DL; ALKALINE PHOSPHATASE [2]: 340.33 u/L; ASPARTATE AMINOTRANSFERASE [2]: 68.33 u/L; BLOOD UREA NITROGEN [2]: 15 mg/dL; CHLORIDE [2]: 108.17 MEQ/L; CHOLESTEROL [2]: 74.67 mg/dL; CREATINE PHOSPHOKINASE [2]: 110.67 u/L; CREATININE [2]: 0.47 mg/dL; GLUCOSE [2]: 171.33 mg/dL; PHOSPHORUS [2]: 10.05 mg/dL; SODIUM [2]: 155.5 MEQ/L; TOTAL PROTEIN [2]: 6.33 G/DL; BASOPHIL [3]: 0%; EOSINOPHIL [3]: 0.33%; ERYTHROCYTE COUNT [3]: 6.14 x10E6/uL; HEMATOCRIT [3]: 37.73%; HEMOGLOBIN [3]: 14.37 G/DL; LEUKOCYTE COUNT [3]: 14.47 x10E3/uL; LYMPHOCYTE [3]: 89.33%; MEAN CORPUSCULAR HEMOGLOBIN [3]: 23.47 pg; MEAN CORPUSCULAR HEMOGLOBIN CONCENTRATION [3]: 38.1 G/DL; MEAN CORPUSCULAR VOLUME [3]: 61.53 fL; MONOCYTE [3]: 0%; NEUTROPHIL [3]: 10.33%; PLATELET COUNT [3]: 1193.33 x10E3/uL; ALANINE AMINOTRANSFERASE [3]: 39 u/L; ALBUMIN [3]: 3.37 G/DL; ALKALINE PHOSPHATASE [3]: 307 u/L; ASPARTATE AMINOTRANSFERASE [3]: 60.67 u/L; BLOOD UREA NITROGEN [3]: 11.33 mg/dL; CHLORIDE [3]: 106.67 MEQ/L; CHOLESTEROL [3]: 65.33 mg/dL; CREATINE PHOSPHOKINASE [3]: 106 u/L; CREATININE [3]: 0.53 mg/dL; GLUCOSE [3]: 175.33 mg/dL; PHOSPHORUS [3]: 12.17 mg/dL; SODIUM [3]: 151.67 MEQ/L; TOTAL PROTEIN [3]: 5.53 G/DL; BASOPHIL [4]: 0%; EOSINOPHIL [4]: 0%; ERYTHROCYTE COUNT [4]: 6.95 x10E6/uL; HEMATOCRIT [4]: 41.1%; HEMOGLOBIN [4]: 15.1 G/DL; LEUKOCYTE COUNT [4]: 16.87 x10E3/uL; LYMPHOCYTE [4]: 90.67%; MEAN CORPUSCULAR HEMOGLOBIN [4]: 21.77 pg; MEAN CORPUSCULAR HEMOGLOBIN CONCENTRATION [4]: 36.73 G/DL; MEAN CORPUSCULAR VOLUME [4]: 59.17 fL; MONOCYTE [4]: 0.33%; NEUTROPHIL [4]: 9%; PLATELET COUNT [4]: 1212.33 x10E3/uL; ALANINE AMINOTRANSFERASE [4]: 46.33 u/L; ALBUMIN [4]: 3.43 G/DL; ALKALINE PHOSPHATASE [4]: 276.33 u/L; ASPARTATE AMINOTRANSFERASE [4]: 68 u/L; BLOOD UREA NITROGEN [4]: 13.67 mg/dL; CHLORIDE [4]: 105 MEQ/L; CHOLESTEROL [4]: 70 mg/dL; CREATINE PHOSPHOKINASE [4]: 104.33 u/L; CREATININE [4]: 0.57 mg/dL; GLUCOSE [4]: 159.33 mg/dL; PHOSPHORUS [4]: 10.67 mg/dL; SODIUM [4]: 151.67 MEQ/L; TOTAL PROTEIN [4]: 5.7 G/DL; BASOPHIL [5]: 0%; EOSINOPHIL [5]: 0%; ERYTHROCYTE COUNT [5]: 6.7 x10E6/uL; HEMATOCRIT [5]: 41%; HEMOGLOBIN [5]: 15.63 G/DL; LEUKOCYTE COUNT [5]: 12.43 x10E3/uL; LYMPHOCYTE [5]: 83%; MEAN CORPUSCULAR HEMOGLOBIN [5]: 23.33 pg; MEAN CORPUSCULAR HEMOGLOBIN CONCENTRATION [5]: 38.17 G/DL; MEAN CORPUSCULAR VOLUME [5]: 61.2 fL; MONOCYTE [5]: 0.33%; NEUTROPHIL [5]: 16.67%; PLATELET COUNT [5]: 1479.67 x10E3/uL; ALANINE AMINOTRANSFERASE [5]: 32 u/L; ALBUMIN [5]: 3.53 G/DL; ALKALINE PHOSPHATASE [5]: 214.33 u/L; ASPARTATE AMINOTRANSFERASE [5]: 57.67 u/L; BLOOD UREA NITROGEN [5]: 19 mg/dL; CHLORIDE [5]: 103.33 MEQ/L; CHOLESTEROL [5]: 62.67 mg/dL; CREATINE PHOSPHOKINASE [5]: 126 u/L; CREATININE [5]: 0.67 mg/dL; GLUCOSE [5]: 129.33 mg/dL; PHOSPHORUS [5]: 11.57 mg/dL; SODIUM [5]: 149.33 MEQ/L; TOTAL PROTEIN [5]: 5.93 G/DL; BASOPHIL [6]: 0%; EOSINOPHIL [6]: 0%; ERYTHROCYTE COUNT [6]: 6.87 x10E6/uL; HEMATOCRIT [6]: 40.23%; HEMOGLOBIN [6]: 15.07 G/DL; LEUKOCYTE COUNT [6]: 19.9 x10E3/uL; LYMPHOCYTE [6]: 96.33%; MEAN CORPUSCULAR HEMOGLOBIN [6]: 21.93 pg; MEAN CORPUSCULAR HEMOGLOBIN CONCENTRATION [6]: 37.47 G/DL; MEAN CORPUSCULAR VOLUME [6]: 58.57 fL; MONOCYTE [6]: 0%; NEUTROPHIL [6]: 3.67%; PLATELET COUNT [6]: 1396 x10E3/uL; ALANINE AMINOTRANSFERASE [6]: 40.67 u/L; ALBUMIN [6]: 3.47 G/DL; ALKALINE PHOSPHATASE [6]: 183 u/L; ASPARTATE AMINOTRANSFERASE [6]: 56.33 u/L; BLOOD UREA NITROGEN [6]: 13.33 mg/dL; CHLORIDE [6]: 106 MEQ/L; CHOLESTEROL [6]: 63 mg/dL; CREATINE PHOSPHOKINASE [6]: 125.67 u/L; CREATININE [6]: 0.5 mg/dL; GLUCOSE [6]: 154.67 mg/dL; PHOSPHORUS [6]: 10.7 mg/dL; SODIUM [6]: 152.33 MEQ/L; TOTAL PROTEIN [6]: 5.8 G/DL
